Here are results for nine molecules from patent publication US5167963A, “8,10-dideazatetrahydrofolic acid derivatives” (SRI International, priority 1990, dated 1992).

Data set [1] can be described thus: Cytotoxicity (focus and potency of cytotoxic action). Format: cell-based. Particulars: in words.
The target in data set [2] is T1, glycinamide ribotide formyl transferase (FGAR) (Lacticaseibacillus casei, UniProt A0AAN1KEB7).
T1 sequence (A0AAN1KEB7 1-189): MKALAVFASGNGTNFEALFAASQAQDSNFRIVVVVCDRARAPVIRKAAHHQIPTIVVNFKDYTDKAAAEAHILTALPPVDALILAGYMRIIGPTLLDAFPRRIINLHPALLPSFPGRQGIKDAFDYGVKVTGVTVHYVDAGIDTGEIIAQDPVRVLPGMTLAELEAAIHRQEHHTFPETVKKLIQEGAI
Put plainly: Enzyme assay for FGAR (glycinamide ribotide formyl transferase) inhibition. Format: biochemical, Lactobacillus casei. Particulars: in words. The protocol:
Inhibition of the glycinamide ribotide formyl transferase (FGAR) and amino-imidazole carboxamide ribotide formyl transferase (AICAR) enzymes was determined by the following test procedure.
Lactobacillus casei extract protein (20 μg) is incubated with 45 μmol of Tris-HCl buffer; pH 7.5, 90 μmol of 2-mercaptoethanol, 0.20 μmol of α,β-glycine-amideribotide and 50 nmol of (6R)-10-formyltetrahydrofolate in 0.9 ml for 1 minute at 30° C. The formation of tetrahydrofolate is followed by change in the ultraviolet maximum at 298 nm. For assay of inhibition the test compounds are added along with the 6R-10-formyl FAHy and the concentration that inhibits the reaction by 50% (Ic50) is determined.

For data set [3] the following is noted: in words; DeGraw et al; cited from earlier work.
For another data set, the system named is dihydrofolate reductase. The note with it: in words; from prior literature/patents; cited from earlier work.
Another data set has as its system L1210 cells. Put plainly: Growth inhibition assay for L1210 cells. Format: cell-based. The note with it: Mus musculus; 72 hours, murine L1210 cells, RPMI 1640 with 10% fetal calf serum. The source says: Murine L1210 cells were obtained as intraperitoneal ascites suspensions from BD2F1 mice. […] Cultures in the logarithmic stage of growth were harvested, resuspended and exposed to test compounds at varying concentrations. Growth of controls was monitored to verify that the growth pattern was normal.

Another data set has as its system L1210 leukemia. Particulars: in words, Taylor et al, U.S. Pat. No. 4,684,653, cited from earlier work.
Another data set relates to thymidylate synthase. Particulars: in words; J. A. R. Mead et al., Cancer Research (1966); cited from earlier work.

SMILES strings stand for the structures. Like-named read-outs stand apart in the source and are kept apart here.

On to `Nc1nc2c(c(=O)[nH]1)CC(CCc1ccc(C(=O)N[C@@H](CCC(=O)O)C(=O)O)cc1)CC2` (stereo partly drawn) [5,8, 10-trideaza FH4], for which the cytotoxic action entry in data set [1] is recorded as “devoid of enzyme or cytotoxic action”. Moreover, in data set [2], the “inhibition of glycinamide ribotide transformylase (GAR transformylase, FGAR)” value was “devoid of enzyme or cytotoxic action”.

Take `Nc1nc2ccc(CCc3ccc(C(=O)N[C@@H](CCC(=O)O)C(=O)O)cc3)nc2c(=O)[nH]1` [8,10-dideazafolic acid]: in data set [3], the antifolate activity result is “active antifolates”. Also, the “inhibition of dihydrofolate reductase” value in the data set with dihydrofolate reductase is recorded as “did not significantly affect DHFR”.

For the molecule `Nc1nc2ccc(CNc3ccc(C(=O)N[C@@H](CCC(=O)O)C(=O)O)cc3)nc2c(=O)[nH]1` [8-deazafolic acid], the “inhibition of dihydrofolate reductase” value in the data set with dihydrofolate reductase was “did not significantly affect DHFR”.

As usually defined, the IC50 is the concentration needed to halve the response being measured. Low values mean greater potency, high ones weaker potency. In turn, `CN(Cc1cnc2nc(N)nc(N)c2n1)c1ccc(C(=O)N[C@@H](CCC(=O)O)C(=O)O)cc1` [Compound 1, methotrexate] returned a 50% inhibitory concentration (IC50) in the data set with L1210 cells of 4.3 nM. The “inhibition of dihydrofolate reductase” value in the data set with dihydrofolate reductase is reported as “inhibiting dihydrofolate reductase (DHFR)”.

On to `Nc1nc2c(c(=O)[nH]1)CC(CCc1ccc(C(=O)N[C@@H](CCC(=O)O)C(=O)O)cc1)CN2` (stereo partly drawn) [Compound 2, N-(4-[2-(2-amino-4-hydroxy-5,6,7,8-tetrahydropyrido[2,3-d]pyrimidin-6-yl)-ethyl]benzoyl)-L-glutamic acid], for which the cytotoxic action result in data set [1] was “potent cytotoxin”. This molecule registered a concentration for half-maximal inhibition (IC50) in the data set with L1210 cells of 42 nM. For the same molecule, the figures for the “inhibition of glycinamide ribotide transformylase (GAR transformylase, FGAR)” value in data set [2] (listed as DDTHF) and in data set [2] (listed as Taylor et al compound) were “potent inhibitor of GAR transformylase” and “clearly an inhibitor of FGAR”, respectively. The “activity against L1210 leukemia” value is “good activity against L-1210 leukemia which is comparable to methotrexate” with L1210 leukemia (listed as N-(4-[2-(2-amino-4-hydroxy-5,6,7,8-tetrahydropyrido[2,3-d]pyrimidin-6-yl)- e thy) and “good activity against L1210 leukemia which is comparable to methotrexate” with L1210 leukemia (listed as N-(4-[2-(2-amino-4-hydroxy-5,6,7,8-tetrahydropyrido[2,3-d]pyrimidin-6-yl)- ethyl). Further, the “inhibition of dihydrofolate reductase” value in the data set on dihydrofolate reductase is given as “weak inhibitor of dihydrofolate reductase”.

Turning to `Nc1nc2c(c(=O)[nH]1)NC(CCc1ccc(C(=O)N[C@@H](CCC(=O)O)C(=O)O)cc1)CC2` (stereo partly drawn) [Compound 3, 8,10-Dideaza-5,6,7,8-tetrahydrofolic Acid], the half-inhibitory concentration (IC50) in the data set with L1210 cells worked out at 96.8 nM.

Regarding `CN1c2c(nc(N)[nH]c2=O)CCC1CCc1ccc(C(=O)N[C@@H](CCC(=O)O)C(=O)O)cc1` (stereo partly drawn) [Compound 4, 5-Methyl-8,10-dideaza-5,6,7,8-tetrahydrofolic Acid], the half-inhibitory concentration (IC50) in the data set with L1210 cells worked out at 38.2 nM.

For the molecule `Nc1nc2c(c(=O)[nH]1)N(C=O)C(CCc1ccc(C(=O)NC(CCC(=O)O)C(=O)O)cc1)CC2` (stereo not drawn) [Compound 5], in the data set on L1210 cells, the concentration for half-maximal inhibition (IC50) was 657 nM.

In the case of `Nc1nc2c(c(=O)[nH]1)N[C@@H](CCNc1ccc(C(=O)NC(CCC(=O)O)C(=O)O)cc1)CN2` (stereo partly drawn) [tetrahydrohomofolate], the “inhibition of thymidylate synthetase in vitro” value with thymidylate synthase is “potent inhibitor”.
